Experiments:
[1] = test system: adult patients diagnosed with highly active, non-cirrhotic NASH; settings: background statement, cited from earlier work
[2] = test system: adult patients diagnosed with highly active, non-cirrhotic NASH; assay: NATIVE phase 2b trial of lanifibranor, liver histology response at Week 24; assay type: in vivo, human; settings: once daily orally, 24 weeks
Excerpt: Patients were eligible for inclusion if they were 18 years of age or older and had non-cirrhotic NASH (the diagnosis of which required a Steatosis, Activity, Fibrosis [SAF] grade of 1 or higher for steatosis, hepatocellular ballooning and lobular inflammation on liver biopsy). A score of 3 or higher on the SAF-A (the activity part of the SAF scoring system that incorporates the scores for hepatocellular ballooning and lobular inflammation) was also a criterion for eligibility. Patients with stage F4 fibrosis, classified according to the criteria of both the SAF and NASH Clinical Research Network (NASH CRN) were excluded from the study. Patients were randomly assigned in a 1:1:1 ratio to receive 800 or 1200 mg lanifibranor or placebo once daily for 24 weeks. Liver biopsy was obtained at baseline and at the end of treatment. The primary end point of the NATIVE study was defined as a decrease of at least 2 points from baseline to Week 24 (end of treatment) in the SAF-A score and no worsening of fibrosis. Secondary histologic end points included resolution of NASH (defined as a ballooning grade of 0 and a lobular inflammation grade of ≤1) and no worsening of fibrosis; improvement in fibrosis of at least 1 stage and no worsening of NASH (i.e., no worsening in either steatosis, ballooning, or lobular inflammation); Nonalcoholic Fatty Liver Disease Activity Score (NAS) improvement (defined as a decrease of ≥2 points from baseline to week 24 in the NAS) and no worsening of fibrosis; resolution of NASH and an improvement in fibrosis stage of at least 1 (as a composite end point); change in scores for the components of the SAF and NASH CRN scoring system (steatosis, activity, inflammation, ballooning, and fibrosis); and change in the modified Ishak score. Non-histologic secondary endpoints included changes in a panel of serum biomarkers related to metabolism, inflammation tissue injury and fibrosis. Patients receiving lanifibranor 800 or 1200 mg per day were pooled and those with pre- and post-treatment liver biopsies were selected (n=142). Post-treatment biopsies were considered if they occurred within 14 days following last lanifibranor intake. The following histological endpoint according to NASH-CRN criteria was considered: NASH resolution without worsening of fibrosis (E2). In the NATIVE trial, from February 2017 through July 2019, 247 patients were randomly assigned to receive 1200 mg of lanifibranor (N=83), 800 mg of lanifibranor (N=83), or placebo (N=81) orally once daily for 6 months. A total of 228 patients completed the trial, 77 in each lanifibranor group and 74 in the placebo group. Reasons for discontinuation of the trial regimen have been reported elsewhere. Finally, among the 154 patients treated with lanifibranor at both doses, 142 patients (N=70 and N=72 patients treated with 800 or 1200 mg per day, respectively) presented with pre- and post-treatment liver biopsies within the time frame required for the present work and were included in the analysis population for signature development.

[3] = 800 and 1200 mg per day pooled, analysis population N=142

## O=C(O)CCCc1cc2cc(Cl)ccc2n1S(=O)(=O)c1ccc2ncsc2c1 [lanifibranor, 4-[1-(1,3-benzothiazol-6-ylsulfonyl)-5-chloroindol-2-yl]butanoic acid]
[1]; daily dose of 1200 mg, patients with active NASH
  Percentage of patients with a decrease of at least 2 points in the SAF-A score without worsening of fibrosis, compared to placebo: significantly higher
[1]; lanifibranor groups
  Secondary endpoints (NASH resolution and fibrosis improvement, NASH resolution without worsening of fibrosis, improvement of fibrosis without worsening of NASH; NASH-CRN), compared to placebo: more favorable than placebo
[2]; 800 mg per day, N=70
  Resolution of NASH without worsening of liver fibrosis (E2), number of patients: 27 patients
  Resolution of NASH without worsening of liver fibrosis (E2), percentage of patients: 39%
[2]; 1200 mg per day, N=72
  Resolution of NASH without worsening of liver fibrosis (E2), number of patients: 36 patients
  Resolution of NASH without worsening of liver fibrosis (E2), percentage of patients: 50%
[2]; [3]
  Resolution of NASH without worsening of liver fibrosis (E2), number of patients: 63 patients
  Resolution of NASH without worsening of liver fibrosis (E2), percentage of patients: 44%

Source: US20240410904A1, “NON-INVASIVE MONITORING OF LIVER DISEASE TREATMENT” (INVENTIVA, priority 2023, published 2024)
